Measurements: patent US20180185408A1, “ANTIFUNGAL NYLON-3 POLYMERS AND COMBINATION THERAPY USING THEM TO TREAT FUNGAL INFECTIONS” (priority 2016, published 2018)
Values after ≈ are worked out from the molar mass of the structure shown. Like-named read-outs stand apart in the source and are kept apart here. Marks after values point to notes of the source that are not given here.

Experiments:
C. auris = experiment: MIC100 against yeast (CLSI M27-A3); format: cell-based, Candida auris; details: Candidozyma auris
Candida albicans = experiment: Checkerboard microdilution synergy (FIC); format: cell-based; details: for MIC: Candida albicans; for MIC Combined: FLC and MM:TM in combination
C. krusei = experiment: MIC100 against yeast (CLSI M27-A3); format: cell-based, Candida krusei
Saccharomyces cerevisiae = experiment: MIC100 against yeast (CLSI M27-A3); format: cell-based; details: Saccharomyces cerevisiae W303
[1] = MM:TM (40:60) with Fluconazole, isolate K1 (Fluconazole Resistant), […]10^5 cells/mL, 30° C.

## OC(Cn1cncn1)(Cn1cncn1)c1ccc(F)cc1F [FLC, fluconazole]
C. auris; Candida auris B11220
  MIC50: 4 µg/mL (≈ 13.1 µM)
C. auris; Candida auris C54039, Resistance AmB
  MIC50: 16 µg/mL (≈ 52.2 µM)
Candida albicans; 48 h, K1, FLC and MM:TM, single agent, […]10^5 cells/mL, 30°C, OD600 48 h, read-out: MIC Alone
  MIC: > 164 µM
Candida albicans; 48 h, K1, Fluconazole and MM:TM, […]10^5 cells/mL, 30°C, OD600 48 h, Avg., read-out: MIC alone
  MIC: > 163 µM
Candida albicans; 48 h, K1, Fluconazole and MM:TM, […]10^5 cells/mL, 30°C, OD600 48 h, trial 1, read-out: MIC alone
  MIC: > 81.6 µM
Candida albicans; 48 h, K1, Fluconazole and MM:TM, […]10^5 cells/mL, 30°C, OD600 48 h, trial 2, read-out: MIC alone
  MIC: > 163 µM
Candida albicans; 48 h, K1, Fluconazole and MM:TM, […]10^5 cells/mL, 30°C, OD600 48 h, trial 3, read-out: MIC alone
  MIC: > 81.6 µM
Candida albicans; 48 h, K1, fluconazole and MM:TM, […]10^5 cells/mL, 30°C, OD600 48 h, Avg., read-out: MIC alone
  MIC: > 50 µg/mL
Candida albicans; 48 h, K1, fluconazole and MM:TM, […]10^5 cells/mL, 30°C, OD600 48 h, trial 1, read-out: MIC alone
  MIC: > 25 µg/mL
Candida albicans; 48 h, K1, fluconazole and MM:TM, […]10^5 cells/mL, 30°C, OD600 48 h, trial 2, read-out: MIC alone
  MIC: > 50 µg/mL
Candida albicans; 48 h, K1, fluconazole and MM:TM, […]10^5 cells/mL, 30°C, OD600 48 h, trial 3, read-out: MIC alone
  MIC: > 25 µg/mL
Candida albicans; [1]
  MIC: > 50 µg/mL
  FICazole: 0.004
Candida albicans; NM20 with Fluconazole, C. albicans K1, […] 10^5 cells/mL
  MIC: > 25 µg/mL
Candida albicans; SC5314, 48 h, SC5314, FLC and MM:TM, single agent, […]10^5 cells/mL, 30°C, OD600 48 h, read-out: MIC Alone
  MIC: < 1 µM
Candida albicans; SC5314, 48 h, SC5314, Fluconazole and MM:TM, […]10^5 cells/mL, 30°C, OD600 48 h, Avg., read-out: MIC alone
  MIC: < 1 µM
Candida albicans; SC5314, 48 h, SC5314, Fluconazole and MM:TM, […]10^5 cells/mL, 30°C, OD600 48 h, trial 1, read-out: MIC alone
  MIC: < 0.7 µM
Candida albicans; SC5314, 48 h, SC5314, Fluconazole and MM:TM, […]10^5 cells/mL, 30°C, OD600 48 h, trial 2, read-out: MIC alone
  MIC: < 2.6 µM
Candida albicans; SC5314, 48 h, SC5314, Fluconazole and MM:TM, […]10^5 cells/mL, 30°C, OD600 48 h, trial 3, read-out: MIC alone
  MIC: < 1.3 µM
Candida albicans; SC5314, 48 h, SC5314, fluconazole and MM:TM, […]10^5 cells/mL, 30°C, OD600 48 h, Avg., read-out: MIC alone
  MIC: < 0.3 µg/mL
Candida albicans; SC5314, 48 h, SC5314, fluconazole and MM:TM, […]10^5 cells/mL, 30°C, OD600 48 h, trial 1, read-out: MIC alone
  MIC: < 0.2 µg/mL
Candida albicans; SC5314, 48 h, SC5314, fluconazole and MM:TM, […]10^5 cells/mL, 30°C, OD600 48 h, trial 2, read-out: MIC alone
  MIC: < 0.8 µg/mL
Candida albicans; SC5314, 48 h, SC5314, fluconazole and MM:TM, […]10^5 cells/mL, 30°C, OD600 48 h, trial 3, read-out: MIC alone
  MIC: < 0.4 µg/mL
Candida albicans; SC5314, NM20 with Fluconazole, C. albicans SC5314, […] 10^5 cells/mL
  MIC: > 25 µg/mL
Candida albicans; SC5314, Table 43, MM:TM with Fluconazole, isolate SC5314, […] 10^5 cells/mL
  MIC: < 0.3 µg/mL
Candida albicans; Table 43, MM:TM with Fluconazole, isolate K1, […] 10^5 cells/mL
  MIC: > 50 µg/mL
Candida albicans; K1, […]10^5 cells/mL, 30°C, OD600 48 h
  MIC Combined: <1.3^i μM
Candida albicans; K1, Fluconazole and MM:TM, Avg., Table 13
  FIC: 0.002
Candida albicans; K1, Fluconazole and MM:TM, […]10^5 cells/mL, 30°C, OD600 48 h, Avg.
  MIC combo: <1.3 µM
Candida albicans; K1, Fluconazole and MM:TM, […]10^5 cells/mL, 30°C, OD600 48 h, trial 1
  MIC combo: <1.3 µM
Candida albicans; K1, Fluconazole and MM:TM, […]10^5 cells/mL, 30°C, OD600 48 h, trial 2
  MIC combo: <2.6 µM
Candida albicans; K1, Fluconazole and MM:TM, […]10^5 cells/mL, 30°C, OD600 48 h, trial 3
  MIC combo: <1.3 µM
Candida albicans; K1, Fluconazole and MM:TM, trial 1, Table 13
  FIC: 0.004
Candida albicans; K1, Fluconazole and MM:TM, trial 2, Table 13
  FIC: 0.004
Candida albicans; K1, Fluconazole and MM:TM, trial 3, Table 13
  FIC: 0.004
Candida albicans; K1, fluconazole and MM:TM, Avg.
  FIC: 0.002
Candida albicans; K1, fluconazole and MM:TM, […]10^5 cells/mL, 30°C, OD600 48 h, Avg.
  MIC combo: <0.4 µg/mL
Candida albicans; K1, fluconazole and MM:TM, […]10^5 cells/mL, 30°C, OD600 48 h, trial 1
  MIC combo: <0.4 µg/mL
Candida albicans; K1, fluconazole and MM:TM, […]10^5 cells/mL, 30°C, OD600 48 h, trial 2
  MIC combo: <0.8 µg/mL
Candida albicans; K1, fluconazole and MM:TM, […]10^5 cells/mL, 30°C, OD600 48 h, trial 3
  MIC combo: <0.4 µg/mL
Candida albicans; K1, fluconazole and MM:TM, trial 1
  FIC: 0.004
Candida albicans; K1, fluconazole and MM:TM, trial 2
  FIC: 0.004
Candida albicans; K1, fluconazole and MM:TM, trial 3
  FIC: 0.004
Candida albicans; K1 strain
  improvement in antifungal activity (fluconazole MIC in combination with copolymer): ≥ 100 fold
Candida albicans; MM:TM (40:60) with Fluconazole, isolate SC5314 (Senstive), […]10^5 cells/mL, 30° C.
  FICazole: 1
Candida albicans; SC5314, […]10^5 cells/mL, 30°C, OD600 48 h
  MIC Combined: <1.0 µM
Candida albicans; SC5314, Fluconazole and MM:TM, Avg., Table 13
  FIC: 1
Candida albicans; SC5314, Fluconazole and MM:TM, […]10^5 cells/mL, 30°C, OD600 48 h, Avg.
  MIC combo: <1.0 µM
Candida albicans; SC5314, Fluconazole and MM:TM, […]10^5 cells/mL, 30°C, OD600 48 h, trial 1
  MIC combo: <0.7 µM
Candida albicans; SC5314, Fluconazole and MM:TM, […]10^5 cells/mL, 30°C, OD600 48 h, trial 2
  MIC combo: <2.6 µM
Candida albicans; SC5314, Fluconazole and MM:TM, […]10^5 cells/mL, 30°C, OD600 48 h, trial 3
  MIC combo: <1.3 µM
Candida albicans; SC5314, Fluconazole and MM:TM, trial 1, Table 13
  FIC: 1
Candida albicans; SC5314, Fluconazole and MM:TM, trial 2, Table 13
  FIC: 1
Candida albicans; SC5314, Fluconazole and MM:TM, trial 3, Table 13
  FIC: 1
Candida albicans; SC5314, fluconazole and MM:TM, Avg.
  FIC: 1
Candida albicans; SC5314, fluconazole and MM:TM, […]10^5 cells/mL, 30°C, OD600 48 h, Avg.
  MIC combo: <0.3 µg/mL
Candida albicans; SC5314, fluconazole and MM:TM, […]10^5 cells/mL, 30°C, OD600 48 h, trial 1
  MIC combo: <0.2 µg/mL
Candida albicans; SC5314, fluconazole and MM:TM, […]10^5 cells/mL, 30°C, OD600 48 h, trial 2
  MIC combo: <0.8 µg/mL
Candida albicans; SC5314, fluconazole and MM:TM, […]10^5 cells/mL, 30°C, OD600 48 h, trial 3
  MIC combo: <0.4 µg/mL
Candida albicans; SC5314, fluconazole and MM:TM, trial 1
  FIC: 1
Candida albicans; SC5314, fluconazole and MM:TM, trial 2
  FIC: 1
Candida albicans; SC5314, fluconazole and MM:TM, trial 3
  FIC: 1
C. krusei; C. krusei QC, CLSI QC isolate for susceptibility testing
  polymer efficacy against budding yeasts, 50%: 32
C. krusei; Pichia kudriavzevii, Candida krusei QC
  MIC50: 32 µg/mL (≈ 104 µM)
Saccharomyces cerevisiae
  MIC50: < 1 µg/mL
